Data reported in patent publication US20250114367A1, “METHOD OF TREATING HAIR LOSS DISORDERS” (Sun Pharmaceutical Industries, Inc., priority 2023, published 2025).

Tests used:
[1] = tested on: adult subjects with moderate to severe AA; assay: Phase III trial: Hair Satisfaction Patient Reported Outcome (SPRO); type: in vivo, human; parameters: key to SPRO responders, treatment difference: Common Risk Difference (Mantel-Haenszel): difference in proportion of responders (satisfied or very satisfied); conditions: for SPRO Responders: No / SPRO Responders: Yes ('Very satisfied' or 'Satisfied') / SPRO Responses: 1 = Very Satisfied / SPRO Responses: 2 = Satisfied / SPRO Responses: 3 = Neither Satisfied Nor Dissatisfied / SPRO Responses: 4 = Dissatisfied / SPRO Responses: 5 = Very Dissatisfied / percentage of subjects with a ≥2 point change from baseline in SPRO / proportion of SPRO responders (very satisfied or satisfied) / percentage of SPRO responders: non-missing data; for SPRO responders, treatment difference: Common Risk Difference (Mantel-Haenszel): MI with MAR assumption
From the text: The SPRO is a single-item questionnaire answered by the subject and designed to measure how satisfied Alopecia Areata subjects are with their hair at the time of the assessment. Subjects answer questions on a scale of 1 to 5, representing “Very satisfied” to “Very dissatisfied.” Satisfaction categories 1-5 of the scale were defined as follows: 1=“Very Satisfied”; 2=“Satisfied”; 3=“Neither Satisfied nor Dissatisfied”; 4=Dissatisfied”; and 5=“Very Dissatisfied”.
The results of the SPRO was analyzed in three different ways: 1) the percentage of responders, 2) the change from baseline, and 3) the percentage of subjects achieving a ≥2.0 point change from baseline.
A Phase III trial was conducted to assess the efficacy and safety of CTP-543 in adult subjects with moderate to severe AA. Approximately 440 adult male and female subjects 18 to 65 years of age, inclusive, with moderate to severe AA participated in the study. Subjects with definitive diagnosis of AA, and at least 50% hair loss, as defined by a SALT score ≥50, who met all of the inclusion criteria and none of the exclusion criteria participated in the study.
The Screening Period lasted up to 28 days prior to initiation of study drug. […] Randomization was stratified by scalp hair loss into 1 of the following 2 categories: 1) partial scalp hair loss (SALT ≥50 and <95), 2) complete or near complete scalp hair loss (SALT ≥95).
The key secondary efficacy endpoints were the percentage of responders (defined as “satisfied” or “very satisfied”) on the Hair Satisfaction Patient Reported Outcome (SPRO) scale at Week 24, 20, 16, 12, and 8.
Additional secondary efficacy endpoints included the following: • Relative change in SALT scores from baseline at Weeks 4, 8, 12, 16, 20, and 24. • Percentage of responders (defined as “much improved” or “very much improved”) using the Clinical Global Impression of Improvement (CGI-I) at Weeks 12, 16, 20, and 24. • Percentage of responders (defined as “much improved” or “very much improved”) using the Patient Global Impression of Improvement (PGI-I) at Weeks 12, 16, 20, and 24. • Change from baseline in the Clinical Global Impression of Severity (CGI-S) at Weeks 12, 16, 20, and 24. • Change from baseline in the Patient Global Impression of Severity (PGI-S) at Weeks 12, 16, 20, and 24. • Change from baseline on the Brigham Eyebrow Tool for Alopecia (BETA) score at Weeks 12 and 24. • Change from baseline on the Brigham Eyelash Tool for Alopecia (BELA) score at Weeks 12 and 24. • Percentage of subjects achieving at least a 75% relative reduction in SALT score from baseline at Weeks 12 and 24. • Percentage of subjects achieving at least a 90% relative reduction in SALT score from baseline at Weeks 12 and 24. • Percentage of responders (defined as “satisfied” or “very satisfied”) on the SPRO scale at Weeks 12, 16, and 20. • Change from baseline in the SPRO scale at Weeks 12, 16, 20, and 24. • Percentage of subjects achieving a ≥2-point change from baseline in the SPRO scale at Weeks 12, 16, 20, and 24. • Change from baseline on the individual items of the Hair Quality Patient Reported Outcome (QPRO) scale at Weeks 12, 16, 20, and 24. • Change from baseline in the depression scale of the Hospital Anxiety and Depression Scale (HADS) at Week 24. • Change from baseline in the anxiety scale of the HADS at Week 24. • Percentage of subjects achieving an absolute SALT score of ≤20 at Week 4. • Percentage of subjects achieving an absolute SALT score of ≤10 at Week 24 […]

subjects with AA = assay: SALT change at week 8, 8 mg BID versus 16 mg once daily; type: in vivo, human
Experimental: A decrease in SALT score indicates increased hair growth. Decreases in the LS mean SALT scores were initially observed at Week 4. […] At week 8, the LS mean change from baseline SALT score was higher in subjects treated with deuruxolitinib 8 mg BID (8.6%) than in subjects treated with 16 mg once daily (QD) (2.7%).

Compound: [2H]C1([2H])C([C@@H](CC#N)n2cc(-c3ncnc4[nH]ccc34)cn2)C([2H])([2H])C([2H])([2H])C1([2H])[2H] [CTP-543, (R)-3-(4-(7H-pyrrolo[2,3-d]pyrimidin-4-yl)-1H-pyrazol-1-yl)-3-(cyclopentyl-2,2,3,3,4,4,5,5-d8) propanenitrile]
- SPRO score, LS mean change from baseline ([1]; Week 12, 8 mg BID): −1.6
- SPRO score, LS mean change from baseline ([1]; Week 12, 12 mg BID): −1.7
- SPRO score, LS mean change from baseline ([1]; Week 16, 8 mg BID): −1.6
- SPRO score, LS mean change from baseline ([1]; Week 16, 12 mg BID): −1.7
- SPRO score, LS mean change from baseline ([1]; Week 20, 8 mg BID): −1.5
- SPRO score, LS mean change from baseline ([1]; Week 20, 12 mg BID): −1.8
- SPRO score, LS mean change from baseline ([1]; Week 24, 8 mg BID): −1.6
- SPRO Responders: No ([1]; Week 24, 8 mg BID (N = 249)): 122 (53.5) n (%)
- SPRO Responders: Yes ('Very satisfied' or 'Satisfied') ([1]; Week 24, 8 mg BID (N = 249)): 106 (46.5) n (%)
- SPRO Responses: 1 = Very Satisfied ([1]; Week 24, 8 mg BID (N = 249)): 40 (17.5) n (%)
- SPRO Responses: 2 = Satisfied ([1]; Week 24, 8 mg BID (N = 249)): 66 (38.9) n (%)
- SPRO Responses: 3 = Neither Satisfied Nor Dissatisfied ([1]; Week 24, 8 mg BID (N = 249)): 34 (14.9) n (%)
- SPRO Responses: 4 = Dissatisfied ([1]; Week 24, 8 mg BID (N = 249)): 34 (14.9) n (%)
- SPRO Responses: 5 = Very Dissatisfied ([1]; Week 24, 8 mg BID (N = 249)): 54 (23.7) n (%)
- SPRO responders, treatment difference: Common Risk Difference (Mantel-Haenszel) ([1]; Week 24, 8 mg BID compared to Placebo): 0.45
- percentage of subjects with a ≥2 point change from baseline in SPRO ([1]; Week 24, 8 mg BID): 52.6%
- proportion of SPRO responders (very satisfied or satisfied) ([1]; Week 24, 8 mg BID): 46.5%
- SPRO score, LS mean change from baseline ([1]; Week 24, 12 mg BID): −1.8
- SPRO Responders: No ([1]; Week 24, 12 mg BID (N = 127)): 58 (48.3) n (%)
- SPRO Responders: Yes ('Very satisfied' or 'Satisfied') ([1]; Week 24, 12 mg BID (N = 127)): 62 (51.7) n (%)
- SPRO Responses: 1 = Very Satisfied ([1]; Week 24, 12 mg BID (N = 127)): 24 (20.0) n (%)
- SPRO Responses: 2 = Satisfied ([1]; Week 24, 12 mg BID (N = 127)): 38 (31.7) n (%)
- SPRO Responses: 3 = Neither Satisfied Nor Dissatisfied ([1]; Week 24, 12 mg BID (N = 127)): 23 (19.2) n (%)
- SPRO Responses: 4 = Dissatisfied ([1]; Week 24, 12 mg BID (N = 127)): 18 (15.0) n (%)
- SPRO Responses: 5 = Very Dissatisfied ([1]; Week 24, 12 mg BID (N = 127)): 17 (14.2) n (%)
- SPRO responders, treatment difference: Common Risk Difference (Mantel-Haenszel) ([1]; Week 24, 12 mg BID compared to Placebo): 0.49
- percentage of subjects with a ≥2 point change from baseline in SPRO ([1]; Week 24, 12 mg BID): 61.7%
- proportion of SPRO responders (very satisfied or satisfied) ([1]; Week 24, 12 mg BID): 51.7
- percentage of SPRO responders ([1]; week 12, 8 mg BID): 43.2%
- percentage of subjects with a ≥2 point change from baseline in SPRO ([1]; week 12, 8 mg BID): 50.4%
- percentage of SPRO responders ([1]; week 12, 12 mg BID): 41.0%
- percentage of subjects with a ≥2 point change from baseline in SPRO ([1]; week 12, 12 mg BID): 59.0%
- percentage of SPRO responders ([1]; week 16, 8 mg BID): 41.0%
- percentage of subjects with a ≥2 point change from baseline in SPRO ([1]; week 16, 8 mg BID): 52.6%
- percentage of SPRO responders ([1]; week 16, 12 mg BID): 45.1%
- percentage of subjects with a ≥2 point change from baseline in SPRO ([1]; week 16, 12 mg BID): 57.4%
- percentage of SPRO responders ([1]; week 20, 8 mg BID): 40.1%
- percentage of subjects with a ≥2 point change from baseline in SPRO ([1]; week 20, 8 mg BID): 50.4%
- percentage of SPRO responders ([1]; week 20, 12 mg BID): 52.5%
- percentage of subjects with a ≥2 point change from baseline in SPRO ([1]; week 20, 12 mg BID): 63.6%
- LS mean change from baseline SALT score (subjects with AA; 8 mg BID): 8.6%
- LS mean change from baseline SALT score (subjects with AA; 16 mg once daily (QD)): 2.7%
